Reference: PubChem BioAssay (NCI)
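All cell lines were grown in 96-well plates and treated with compound for 48 hours. GI50 = concentration required for 50% inhibition of growth. Definition used: TGI = concentration required for complete inhibition of growth.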

How the values were obtained:
Experiment in all cases: growth of human tumour cells (NCI), 48 h
SNB-19 CNS = system: SNB-19 CNS
MOLT-4 leukemia = system: MOLT-4 leukemia
UACC-257 melanoma = system: UACC-257 melanoma
SW-620 colon = system: SW-620 colon
RXF 393 renal = system: RXF 393 renal
MALME-3M melanoma = system: MALME-3M melanoma
NCI-H23 lung = system: NCI-H23 lung
RPMI-8226 leukemia = system: RPMI-8226 leukemia
UO-31 renal = system: UO-31 renal
OVCAR-4 ovarian = system: OVCAR-4 ovarian

With `COc1cc2c(cc1OC)-c1cc3ccccc3c[n+]1CC2` as the compound, how does the TGI (SNB-19 CNS) read?
The TGI was > 100 µM.

What about the TGI (MOLT-4 leukemia) of the same compound?
The TGI was > 100 µM.

And the TGI (UACC-257 melanoma)?
The TGI was > 100 µM.

What about the TGI (SW-620 colon) of the same compound?
The TGI was > 100 µM.

And the TGI (RXF 393 renal)?
Its TGI is > 100 µM.

And the TGI (MALME-3M melanoma)?
Its TGI is 54.3 µM.

What about the TGI (NCI-H23 lung) of the same compound?
The TGI was > 100 µM.

What about the TGI (RPMI-8226 leukemia) of the same compound?
The TGI was > 100 µM.

What about the TGI (UO-31 renal) of the same compound?
The TGI was > 100 µM.

And the TGI (OVCAR-4 ovarian)?
The TGI was > 100 µM.

For `CCOc1ccc2nc(-c3ccc(O)cc3)sc2c1`, which TGI (SNB-19 CNS) is on record?
Its TGI is > 100 µM.

What about the TGI (MOLT-4 leukemia) of the same compound?
The TGI was > 100 µM.

And the TGI (UACC-257 melanoma)?
Its TGI is 64.5 µM.

And the TGI (SW-620 colon)?
The TGI was > 100 µM.

And the TGI (RXF 393 renal)?
The TGI was > 100 µM.

And the TGI (MALME-3M melanoma)?
Its TGI is > 100 µM.

What about the TGI (NCI-H23 lung) of the same compound?
Its TGI is > 100 µM.

And the TGI (RPMI-8226 leukemia)?
The TGI was 2.63 µM.

What about the TGI (UO-31 renal) of the same compound?
The TGI was > 100 µM.

What does the source list for `O=C(Nc1cccc(-n2ccc3c(NC(=O)c4ccccc4)nccc32)c1)c1ccc(N2CCOCC2)c(C(F)(F)F)c1`?
GI50 (SNB-19 CNS): 0.058 µM; TGI (SNB-19 CNS): > 100 µM; GI50 (MOLT-4 leukemia): 0.128 µM; TGI (MOLT-4 leukemia): > 100 µM; GI50 (UACC-257 melanoma): 2.36 µM; TGI (UACC-257 melanoma): > 100 µM; GI50 (SW-620 colon): 0.0412 µM; TGI (SW-620 colon): > 100 µM; GI50 (RXF 393 renal): 0.0333 µM; TGI (RXF 393 renal): 2.69 µM; GI50 (NCI-H23 lung): 0.0679 µM; TGI (NCI-H23 lung): > 90.1 µM; GI50 (RPMI-8226 leukemia): 0.0545 µM; TGI (RPMI-8226 leukemia): 13.1 µM; GI50 (UO-31 renal): 0.0537 µM; TGI (UO-31 renal): 37.8 µM; GI50 (OVCAR-4 ovarian): 0.168 µM; TGI (OVCAR-4 ovarian): > 70.7 µM

Which TGI (SNB-19 CNS) does the source give for `CC1(C)CC23C4COC(=O)C2CCC1C3CC4=O` (stereo not drawn) here?
Its TGI is 81.2 µM.

What about the TGI (MOLT-4 leukemia) of the same compound?
Its TGI is 63.2 µM.

And the TGI (UACC-257 melanoma)?
The TGI was 26.3 µM.

And the TGI (SW-620 colon)?
The TGI was 10.2 µM.

What about the TGI (RXF 393 renal) of the same compound?
The TGI was 4.76 µM.

And the TGI (MALME-3M melanoma)?
The TGI was 23.3 µM.

And the TGI (NCI-H23 lung)?
Its TGI is 10.8 µM.

What about the TGI (RPMI-8226 leukemia) of the same compound?
The TGI was 48.6 µM.

And the TGI (UO-31 renal)?
The TGI was 90.1 µM.

What about the TGI (OVCAR-4 ovarian) of the same compound?
The TGI was 64.2 µM.

`COC1=C2CC(C)CC(OC)C(O)C(C)/C=C(\C)C(OC(N)=O)C(OC)/C=C\C=C(/C)C(=O)NC(=C(C=NC(C)(C)C)C1=O)C2=O` (stereo not drawn) was tested. Which TGI (SNB-19 CNS) did it give?
The TGI was 26.9 µM.

And the TGI (MOLT-4 leukemia)?
Its TGI is 12.1 µM.

And the TGI (UACC-257 melanoma)?
Its TGI is 17.8 µM.

And the TGI (SW-620 colon)?
The TGI was 20.9 µM.

What about the TGI (RXF 393 renal) of the same compound?
The TGI was 4.89 µM.

What about the TGI (MALME-3M melanoma) of the same compound?
The TGI was 5.23 µM.

And the TGI (NCI-H23 lung)?
The TGI was 5.17 µM.

And the TGI (RPMI-8226 leukemia)?
Its TGI is 13.5 µM.

And the TGI (UO-31 renal)?
The TGI was 40.5 µM.

What about the TGI (OVCAR-4 ovarian) of the same compound?
Its TGI is 14.4 µM.

For `O=C1OC[C@@H]2[C@@H](O)CCCCCN12`, which TGI (SNB-19 CNS) is on record?
Its TGI is > 100 µM.

What about the TGI (MOLT-4 leukemia) of the same compound?
The TGI was > 100 µM.

What about the TGI (UACC-257 melanoma) of the same compound?
The TGI was > 100 µM.

And the TGI (SW-620 colon)?
Its TGI is > 100 µM.

And the TGI (RXF 393 renal)?
The TGI was > 100 µM.

What about the TGI (RPMI-8226 leukemia) of the same compound?
Its TGI is > 100 µM.

What about the TGI (UO-31 renal) of the same compound?
The TGI was > 100 µM.

And the TGI (OVCAR-4 ovarian)?
The TGI was > 100 µM.

`Fc1ccc2[nH]cc(-c3nc(-c4c[nH]c5ncccc45)cs3)c2c1` was tested. Which GI50 (UACC-257 melanoma) did it give?
The GI50 was > 100 µM.

What about the TGI (UACC-257 melanoma) of the same compound?
Its TGI is > 100 µM.

What about the GI50 (SW-620 colon) of the same compound?
Its GI50 is > 100 µM.

And the TGI (SW-620 colon)?
The TGI was > 100 µM.

What about the GI50 (RXF 393 renal) of the same compound?
Its GI50 is > 100 µM.

And the TGI (RXF 393 renal)?
Its TGI is > 100 µM.

What about the GI50 (UO-31 renal) of the same compound?
Its GI50 is 0.478 µM.

And the TGI (UO-31 renal)?
The TGI was > 100 µM.

Which results are given for `N/C(=N\N=C/c1ccccc1O)NO`?
TGI (SNB-19 CNS): > 91.3 µM; TGI (MOLT-4 leukemia): > 70.2 µM; TGI (UACC-257 melanoma): > 100 µM; TGI (SW-620 colon): > 100 µM; TGI (RXF 393 renal): 25.9 µM; TGI (MALME-3M melanoma): > 84.1 µM; TGI (NCI-H23 lung): 53.9 µM; TGI (RPMI-8226 leukemia): 27 µM; TGI (UO-31 renal): > 95.5 µM; TGI (OVCAR-4 ovarian): 31.1 µM

How did the TGI (SNB-19 CNS) turn out when `Nc1ncnc2c1ncn2C1OC(COP(=O)(O)O)C(O)C1O` (stereo not drawn) was run?
The TGI was > 50 µM.

And the TGI (MOLT-4 leukemia)?
Its TGI is > 50 µM.

And the TGI (UACC-257 melanoma)?
The TGI was > 50 µM.

What about the TGI (SW-620 colon) of the same compound?
The TGI was > 50 µM.

What about the TGI (RXF 393 renal) of the same compound?
Its TGI is > 50 µM.

What about the TGI (MALME-3M melanoma) of the same compound?
Its TGI is > 50 µM.

What about the TGI (NCI-H23 lung) of the same compound?
The TGI was > 50 µM.

What about the TGI (RPMI-8226 leukemia) of the same compound?
The TGI was > 50 µM.

And the TGI (UO-31 renal)?
The TGI was > 50 µM.

And the TGI (OVCAR-4 ovarian)?
Its TGI is > 50 µM.

How did the TGI (SNB-19 CNS) turn out when `CCOC(=O)NC(Nc1ncccn1)(C(F)(F)F)C(F)(F)F` was run?
Its TGI is > 100 µM.

What about the TGI (MOLT-4 leukemia) of the same compound?
Its TGI is > 100 µM.

What about the TGI (UACC-257 melanoma) of the same compound?
The TGI was > 100 µM.

And the TGI (RXF 393 renal)?
Its TGI is > 100 µM.

What about the TGI (MALME-3M melanoma) of the same compound?
Its TGI is > 100 µM.

What about the TGI (NCI-H23 lung) of the same compound?
The TGI was > 100 µM.

What about the TGI (RPMI-8226 leukemia) of the same compound?
Its TGI is > 100 µM.

What about the TGI (UO-31 renal) of the same compound?
Its TGI is > 100 µM.

`CCS(=O)(=O)N1CCC(C(C)n2c(C)c(C(=O)NCc3c(OC)cc(C)[nH]c3=O)c3ccccc32)CC1` (stereo not drawn) was tested. Which GI50 (UACC-257 melanoma) did it give?
Its GI50 is > 100 µM.

What about the TGI (UACC-257 melanoma) of the same compound?
Its TGI is > 100 µM.

What about the GI50 (SW-620 colon) of the same compound?
The GI50 was > 100 µM.

What about the TGI (SW-620 colon) of the same compound?
The TGI was > 100 µM.

And the GI50 (RXF 393 renal)?
Its GI50 is > 100 µM.

And the TGI (RXF 393 renal)?
The TGI was > 100 µM.

What about the GI50 (NCI-H23 lung) of the same compound?
The GI50 was > 100 µM.

And the TGI (NCI-H23 lung)?
The TGI was > 100 µM.

And the GI50 (UO-31 renal)?
The GI50 was > 100 µM.

And the TGI (UO-31 renal)?
Its TGI is > 100 µM.

And the GI50 (OVCAR-4 ovarian)?
Its GI50 is > 100 µM.

What about the TGI (OVCAR-4 ovarian) of the same compound?
Its TGI is > 100 µM.
